By IC50 is commonly meant the concentration that inhibits the measured activity by half.

Three molecules from US20240239766A1, “3-AMINO PIPERIDYL SODIUM CHANNEL INHIBITORS” (Genentech, Inc., priority 2021, published 2024) can be followed below.

Structures are written as SMILES. Structures can show the parent of a compound that is named as a salt.

This test deals with hNav1.7 (Homo sapiens (Human), UniProt Q15858). Put plainly: Patch voltage clamp electrophysiology assay (EP), Syncropatch 384PE, CHO cells expressing Nav1.7. The note with it: holding potential −50 mV; 7.5 min compound incubation; read-out: EP SP hNav1.7 EVO (IC50). It is filed as cell-based. (In general: In patch-clamp work, channel activity is measured electrically.)
Sequence of hNav1.7 (Q15858 other isoform, or with tags, fused parts or gaps): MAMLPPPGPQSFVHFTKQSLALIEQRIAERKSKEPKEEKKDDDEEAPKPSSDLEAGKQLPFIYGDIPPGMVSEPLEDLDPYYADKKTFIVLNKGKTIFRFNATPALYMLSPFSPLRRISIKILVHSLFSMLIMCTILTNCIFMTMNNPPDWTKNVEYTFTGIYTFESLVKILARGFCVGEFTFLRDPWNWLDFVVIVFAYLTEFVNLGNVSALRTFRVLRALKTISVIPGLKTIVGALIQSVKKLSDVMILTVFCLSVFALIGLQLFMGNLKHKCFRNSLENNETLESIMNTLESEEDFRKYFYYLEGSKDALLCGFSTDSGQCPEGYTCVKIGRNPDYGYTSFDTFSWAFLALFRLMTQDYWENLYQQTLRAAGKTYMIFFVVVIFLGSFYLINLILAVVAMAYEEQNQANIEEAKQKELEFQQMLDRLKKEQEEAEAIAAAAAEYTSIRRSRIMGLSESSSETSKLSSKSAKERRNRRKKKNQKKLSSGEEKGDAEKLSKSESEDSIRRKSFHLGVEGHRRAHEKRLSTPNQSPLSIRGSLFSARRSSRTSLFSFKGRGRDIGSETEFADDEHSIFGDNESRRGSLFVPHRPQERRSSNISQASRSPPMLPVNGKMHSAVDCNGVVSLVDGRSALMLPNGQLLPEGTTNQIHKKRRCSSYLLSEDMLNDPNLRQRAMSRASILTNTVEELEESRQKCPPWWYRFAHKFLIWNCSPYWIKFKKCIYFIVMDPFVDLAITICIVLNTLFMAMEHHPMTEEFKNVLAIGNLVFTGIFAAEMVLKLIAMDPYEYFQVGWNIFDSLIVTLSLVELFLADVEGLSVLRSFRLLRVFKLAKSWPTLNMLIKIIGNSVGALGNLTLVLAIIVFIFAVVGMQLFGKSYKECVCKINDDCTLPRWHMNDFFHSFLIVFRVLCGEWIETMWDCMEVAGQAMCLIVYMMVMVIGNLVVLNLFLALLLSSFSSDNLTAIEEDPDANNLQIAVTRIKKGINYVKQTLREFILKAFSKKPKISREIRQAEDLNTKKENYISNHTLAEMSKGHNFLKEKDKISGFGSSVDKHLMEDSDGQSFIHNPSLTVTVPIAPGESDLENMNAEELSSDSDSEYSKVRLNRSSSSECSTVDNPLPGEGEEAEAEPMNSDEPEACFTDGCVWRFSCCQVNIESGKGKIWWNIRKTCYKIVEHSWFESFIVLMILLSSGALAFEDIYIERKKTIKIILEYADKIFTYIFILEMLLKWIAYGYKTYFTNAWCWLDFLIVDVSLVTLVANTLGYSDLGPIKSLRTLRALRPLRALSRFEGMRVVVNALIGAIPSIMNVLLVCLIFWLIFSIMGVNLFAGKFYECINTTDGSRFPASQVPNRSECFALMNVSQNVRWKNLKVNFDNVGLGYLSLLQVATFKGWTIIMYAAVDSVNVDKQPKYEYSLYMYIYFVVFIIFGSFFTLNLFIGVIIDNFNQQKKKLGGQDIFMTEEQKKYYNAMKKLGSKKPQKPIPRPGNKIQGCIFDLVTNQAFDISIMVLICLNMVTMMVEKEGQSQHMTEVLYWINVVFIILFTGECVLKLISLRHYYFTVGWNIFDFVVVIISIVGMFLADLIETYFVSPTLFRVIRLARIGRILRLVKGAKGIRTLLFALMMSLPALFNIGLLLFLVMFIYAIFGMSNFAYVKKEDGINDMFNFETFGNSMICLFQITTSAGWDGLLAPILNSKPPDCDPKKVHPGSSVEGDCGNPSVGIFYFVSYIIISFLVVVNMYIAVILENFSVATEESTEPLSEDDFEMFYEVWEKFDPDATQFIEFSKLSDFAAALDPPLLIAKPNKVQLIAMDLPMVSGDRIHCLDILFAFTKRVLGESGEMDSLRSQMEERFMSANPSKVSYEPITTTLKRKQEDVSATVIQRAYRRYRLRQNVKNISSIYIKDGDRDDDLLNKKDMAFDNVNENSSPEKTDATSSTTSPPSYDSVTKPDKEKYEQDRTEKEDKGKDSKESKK

Take `CN(C)[C@]1(CCc2cccc(C(F)(F)F)n2)CCCN(c2cc(F)c(S(=O)(=O)Nc3ccncn3)c(F)c2)C1` [Example 98, (S)-4-(3-(Dimethylamino)-3-(2-(6-(trifluoromethyl)pyridin-2-yl)ethyl)piperidin-1-yl)-2,6-difluoro-N-(pyrimidin-4-yl)benzenesulfonamide formate]: the IC50 amounted to 62.5 nM. For `CN(C)[C@@]1(CC2CCCC2)CCCN(c2cc(F)c(S(=O)(=O)Nc3ccncn3)c(F)c2)C1` [Example 99, (R)-4-(3-(Cyclopentylmethyl)-3-(dimethylamino)piperidin-1-yl)-2,6-difluoro-N-(pyrimidin-4-yl)benzenesulfonamide], the half-maximal inhibitory concentration (IC50) was 8950 nM.

`CN(C)[C@]1(CC2CCCC2)CCCN(c2cc(F)c(S(=O)(=O)Nc3ccncn3)c(F)c2)C1` [Example 100, (S)-4-(3-(Cyclopentylmethyl)-3-(dimethylamino)piperidin-1-yl)-2,6-difluoro-N-(pyrimidin-4-yl)benzenesulfonamide]: the IC50 worked out at 130 nM.
